SMILES strings stand for the structures. Read-outs that look alike come from different tables or passages of the source.

In experiment [1] the test system is patients with stable end-stage renal disease (ESRD) treated with haemodialysis. Also noted: method as in ref 35 (a number printed in a supplementary file, which may have a reference list of its own: not looked up in the article's list). Particulars: cited from earlier work.
For experiment [2], the system named is patients with NDD CKD (stage 3 or 4) and Hb ≤ 10.5 g/dL. Also noted: method as in ref 36 (a number printed in a supplementary file, which may have a reference list of its own: not looked up in the article's list). Particulars: after 16 weeks of treatment, 143 subjects evaluable for efficacy; cited from earlier work.
For experiment [3], the system named is patients with NDD CKD and Hb < 10.0 g/dL. Also noted: method as in ref 38 (a number printed in a supplementary file, which may have a reference list of its own: not looked up in the article's list). Particulars: TIW, 9 weeks, cited from earlier work.
Experiment [4] concerns patients with ESRD on haemodialysis and previously with Epoetin Alfa. Also noted: method as in ref 38 (a number printed in a supplementary file, which may have a reference list of its own: not looked up in the article's list). Particulars: TIW, 7 weeks, cited from earlier work.
Experiment [5] concerns the target PHD2 catalytic domain (residues 181-426) (Homo sapiens, UniProt Q9GZT9). Description: NMR KD measurement (2OG displacement or water relaxation). It counts as binding. Also noted: The catalytic domain of human PHD2 (residues 181-426) was used in all; made in house. Particulars: water relaxation or 2OG displacement. As for the experimental part: Water-Ligand Observed Gradient SpectroscopY (wLOGSY) experiments were conducted […]
Solvent excitation was achieved using a 16 ms 180 degree selective rectangular shape pulse with 100% truncation level and 1000 points (Squa100.1000) set at the H2O frequency. Water suppression was achieved by a 2 ms Sinc (Sinc1.1000) pulse at the H2O frequency.
2OG displacement experiments were monitored by CPMG-edited 1H NMR using a Bruker […]
supplemented with 60 µM Zn(II) and increasing concentrations of the inhibitors from a […]
(90°x−[τ−180°y−τ−90°y−τ−180°y−τ]n−acq), was applied. Typical experimental parameters were […]
suppression was achieved by presaturation.
For 13C-CODD and […] displacement experiments, 1D Clean In-Phase (CLIP) HSQC with selective 13C-inversion displacement experiments were conducted using a Bruker AV700 instrument. 3 mm MATCH NMR tubes were used (Cortecnet). All experiments were […]
prolyl-ring. 7 The CLIP-HSQC sequence was used for 1D HSQC experiments (without 13C decoupling).8 Relaxation delay was 2s. The 1JCH was set to 160 Hz. A 6.8 ms Q3.1000 180 degree pulse was used and selective irradiation was applied at the selected chemical shift. […]
Samples were prepared by mixing reaction mixture (1 μL) with α-cyano-4-hydrocinnamic acid (CHCA) solution (water:acetonitrile 1:1) (1 μL). Dose-response was assessed in 8-point […]

In experiment [6] the test system is subjects with non-dialysis CKD stage 3-5 and Hb < 10.5 g/dL. Also noted: method as in ref 39 (a number printed in a supplementary file, which may have a reference list of its own: not looked up in the article's list). Particulars: all Molidustat doses (25, 50, 75 mg daily; 25, 50 mg BID), 16 weeks; cited from earlier work.
The subject of experiment [7] is HIF target genes in Hep3b cells. In words: RT-qPCR of HIF target genes. The experiment is classed as cell-based, human. Particulars: 24 hours, 2.5 or 10 μM. As for the experimental part: The upregulation of HIF-α isoforms has multiple downstream effects.[1],[30],[86],[87] To investigate whether the inhibitors have differential effects on HIF target genes we measured their mRNA levels for a set of HIF target genes after 24 hours in Hep3b cells. The panel aimed to cover a small, yet representative, HIF target gene set. […]. […]. page 16:
Cells were lysed using the TRI reagent® (Sigma T9424). RNA was then extracted by phase separation following the manufacturer’s protocol. Extracted RNA was treated with the RNase-free DNase I (DNA-free™ DNA Removal Kit, Applied Biosystems AM1906) to eliminate contaminating DNA. For reverse transcription, 1μg of DNase-treated RNA samples were used for cDNA synthesis using High-Capacity cDNA Reverse Transcription Kit (Thermo Fisher Scientific 4368814). […] Quantitation of 18 relative expression level was analyzed using the ΔΔCT method with HPRT as a reference gene using; statistical analyses of the biological and technical repeats were calculated using StepOne Software (version 2.2.2). […]
Cell seeding and inhibitor treatments were performed in parallel in the same manner as used for the HRE reporter assay (see above). […] Fluorescence signals were measured with an excitation wavelength of 544 nm and emission wavelength of 590 nm using a FLUOstar Omega Microplate Reader (BMG

Sequence of PHD2 catalytic domain (residues 181-426) (Q9GZT9 181-426): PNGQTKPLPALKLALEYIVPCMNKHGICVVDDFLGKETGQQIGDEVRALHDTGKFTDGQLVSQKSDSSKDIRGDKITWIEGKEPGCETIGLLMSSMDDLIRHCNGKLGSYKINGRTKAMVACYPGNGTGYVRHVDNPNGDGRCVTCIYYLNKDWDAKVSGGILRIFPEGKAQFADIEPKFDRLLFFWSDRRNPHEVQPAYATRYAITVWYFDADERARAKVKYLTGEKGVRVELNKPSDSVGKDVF

For `Cc1nc(C(=O)NCC(=O)O)c(O)c2ccc(Oc3ccccc3)cc12` [FG-4592], the “subjects with Hb increase ≥ -0.5 g/dL from baseline” value in experiment [1] (Part 1, 6-week treatment, Roxadustat 1.5-2.0 mg/kg pool versus Epoetin Alfa arm) was 79%. Also, the “average Roxadustat for Hb level maintenance (mean Hb ≥ 11.0 g/dL during last 4 weeks of treatment)” value in experiment [1] (Part 2, 19-week treatment) is reported as 1.68 ± 0.65 mg/kg TIW. Also, the “subjects with Hb increase ≥ 1 g/dL from baseline and Hb of ≥ 11.0 g/dL (Hb response) by week 17” value in experiment [2] is 91.6%. Further, the “subjects with Hb increase ≥ 1 g/dL from baseline” value in experiment [3] (high-dose cohort) was 87.1%; in experiment [3] (low-dose cohort), 80%. Moreover, the values for the Hb levels maintained in experiment [4] (high-dose cohort), in experiment [4] (low-dose cohort) and in experiment [4] (medium-dose cohort) were 100%, 59.1% and 88.9%, respectively.

`CC(C)(C)OC(=O)c1ccc(-n2[nH]cc(-n3ccnn3)c2=O)nc1` [IOX4]: the KD entry in experiment [5] is reported as “sub-μM range”.

With `O=c1c(-n2ccnn2)c[nH]n1-c1cc(N2CCOCC2)ncn1` [Molidustat], the Hb increase result in experiment [6] was “at least 1.14 g/dL”. In experiment [5], the KD result is given as “sub-μM range”.

On to `O=C(O)CNC(=O)c1ncc(-c2cccc(Cl)c2)cc1O` [Vadadustat], for which, in experiment [7], the “upregulation of assayed HIF target genes” value is listed as “failed to obviously upregulate assayed HIF target genes”.

These data come from publication PMC5802278, “Molecular and cellular mechanisms of HIF prolyl hydroxylase inhibitors in clinical trials” (Chemical Science, 2017).
